Laboratory results published in US20170080026A1, “METHOD AND COMPOUND FOR OPENING POTASSIUM CHANNELS OF MAMMAL VASCULAR SMOOTH MUSCLES IN A REMOTE CONTROL MANNER” (Tovaristvo Z Obmezhenou Vidpovidalnistu "Nanomedtrast", priority 2015, published 2017).
Like-named read-outs stand apart in the source and are kept apart here.

System: outgoing potassium current (IK) in rat thoracic aorta SM cells
Experiment: Whole-cell outgoing K+ current (IK) recording in isolated thoracic aorta smooth muscle cells
Type: cell-based
Procedure: C, D show effects of potassium channel blockers (paxillin, 500 nM, and […] 10 mm) on the outgoing potassium current in smooth muscle cells of thoracic aorta not exposed to Au NPs (C) and exposed to Au NPs (D). Currents caused by single step excitations with an amplitude of 10 mV and 300 ms increments within −100 and +70 mV of outgoing potential at −60 mV.
Currents in each cell (except for leakage current) were converted into specific […], averaged and depicted versus membrane potential (mV). The data thus obtained were brought in consistency using the standard Boltzmann function with average parameters described herein. The resulting current-voltage characteristics (curves I-V) were obtained by measuring current at the end of an impulse. The data represent mean values of ±SEM (n=8).
For the purposes of the study, smooth muscle cells isolated from rat thoracic aorta using collagenase and pronase were taken. Rats were anesthetised with ketamine (37.5 mg/kg body weight, intraperitoneally) and xylazine (10 mg/kg body weight, intraperitoneally), and thoracic aorta about 1.0 . . . 1.5 cm long was removed and denuded to make it free from connective tissue. Aorta was cut into small pieces (1.5×1.5 mm) in the cooled low Ca^2+ ion content solution comprising (in mM): NaCl 140, KCl 6, MgCl2 3, D-glucose 10, HEPES 10 (pH 7.4) for 15 minutes. Vascular tissues were placed in fresh low Ca^2+ ion content solution comprising collagenase type IA 2 mg/mL (417 U/mg), pronase type E XXV 0.5 mg/ml, and bovine albumin serum 2 mg/ml. Then tissues were incubated for 30 minutes at a temperature of +37 ° C. After incubation, tissues were washed (for 2-3 minutes) twice in fresh low Ca^2+ ion content solution to remove enzymes. Cells were dispersed by stirring using a glass pipette and then placed in modified Krebs bicarbonate buffer. A certain number of muscle cells was maintained at a temperature of […] and remained functional for at least 4 hours. […]

| SMILES | effect on Au NPs-induced IK increment (SM cells exposed to Au NPs) | effect on Au NPs-induced IK increment | outgoing current |
| --- | --- | --- | --- |
| CC(C)(O)[C@H]1O[C@H]2CC[C@@]3(C)[C@@](O)(CC[C@H]4Cc5c([nH]c6ccccc56)[C@@]43C)C2=CC1=O [Paxillin, paxillin] | stopped Au NPs-induced IK increment | – | – |
| CC[N+](CC)(CC)CC [tetraethylammonium] | – | stopped Au NPs-induced IK increment | 3±1 pA/pF |
